In patent US11564912B2, “Methods for treating irritable bowel syndrome (IBS)” (Salix Pharmaceuticals, Inc., priority 2008, dated 2023):

What was measured:
[1] = tested on: patients with diarrhea-predominant IBS (dIBS); test: 34-item IBS-QOL questionnaire, rifaximin 550 mg BID vs placebo; format: in vivo, human; design: key to Mean Change From Baseline in IBS-QOL Scores at Week 4: change in score on 0–100 scale, higher = better QOL; conditions: for Mean Change From Baseline in IBS-QOL Scores at Week 4: Rifaximin 1100 mg/d (n = 191)
Protocol: Both groups received placebo for an additional 14 days after the initial 2-week treatment. Quality of life was assessed with the 34-item IBS-QOL questionnaire at baseline and 4 weeks after initiating treatment. Each item was scored on a 5-point scale (1=not at all; 2=slightly; 3=moderately; 4=quite a bit; and 5=extremely or a great deal). Results for composite and subscale scores were converted to a scale ranging from 0 to 100, with higher scores indicating better QOL.
Following a 2-week initial treatment period, both groups of patients received placebo for an additional 14 days. Quality of life was assessed via the 34-item IBS-QOL questionnaire at baseline and 4 weeks after initiating treatment. Each item was scored on a 5-point scale (1=not at all; 2=slightly; 3=moderately; 4=quite a bit; 5=extremely or a great deal); results for composite and subscale scores were converted to a scale ranging from 0 to 100, with higher scores indicating better QOL.

subjects with IBS = test: Combined analysis of the two studies of rifaximin 550 mg TID; format: in vivo, human
[2] = at least 2 out of 4 weeks adequate relief during weeks 3 through 6 (weekly question)

(2S,16Z,18E,20S,21S,22R, 23R,24R,25S,26S,27S,28E)-5,6,21,23,25 Pentahydroxy-27-methoxy -2,4,11,16,20,22,24,26-octamethyl-2,7-(epoxypentadeca-(1,11,13)trienimino)benzofuro (4,5-e) pyrido(1,2,-a) benzimidazole-1,15(2H)-dione,25-acetate [Rifaximin]
Improvement with rifaximin over placebo, IBS-QOL at Week 4 ([1]; Body image): 37.4% | Mean Change From Baseline in IBS-QOL Scores at Week 4 ([1]; Body image): 20.1 | Improvement with rifaximin over placebo, IBS-QOL at Week 4 ([1]; Dysphoria): 25.3% | Mean Change From Baseline in IBS-QOL Scores at Week 4 ([1]; Dysphoria): 24.8 | Improvement with rifaximin over placebo, IBS-QOL at Week 4 ([1]; Food avoidance): 22.1% | Mean Change From Baseline in IBS-QOL Scores at Week 4 ([1]; Food avoidance): 25.0 | Improvement with rifaximin over placebo, IBS-QOL at Week 4 ([1]; Health worry): 30.6% | Mean Change From Baseline in IBS-QOL Scores at Week 4 ([1]; Health worry): 16.0 | Improvement with rifaximin over placebo, IBS-QOL at Week 4 ([1]; Interference with activity): 22.2% | Mean Change From Baseline in IBS-QOL Scores at Week 4 ([1]; Interference with activity): 22.2 | Improvement with rifaximin over placebo, IBS-QOL at Week 4 ([1]; Overall score): 28.7% | Mean Change From Baseline in IBS-QOL Scores at Week 4 ([1]; Overall score, 14 days, scale 0 to 100): 20.4 | Improvement with rifaximin over placebo, IBS-QOL at Week 4 ([1]; Relationship): 39.5% | Mean Change From Baseline in IBS-QOL Scores at Week 4 ([1]; Relationship): 14.9 | Improvement with rifaximin over placebo, IBS-QOL at Week 4 ([1]; Sexual): 24.9% | Mean Change From Baseline in IBS-QOL Scores at Week 4 ([1]; Sexual): 13.6 | Improvement with rifaximin over placebo, IBS-QOL at Week 4 ([1]; Social reaction): 31.6% | Mean Change From Baseline in IBS-QOL Scores at Week 4 ([1]; Social reaction): 17.3 | Daily abdominal pain <2, responders (subjects with IBS; <2 for at least 50% of days in a week for at least 2 weeks during PEP): 39% | Global IBS symptoms, responders (subjects with IBS; [2]): 41% | IBS symptom of Bloating, responders (subjects with IBS; [2]): 40% | Abdominal Pain reduction of 2 point in median, responders (subjects with IBS; at least 2 weeks during PEP): 39% | Abdominal Pain reduction of 3 point in mean, responders (subjects with IBS; at least 2 weeks during PEP): 6% vs 7% | Abdominal Pain reduction of 3 point in median, responders (subjects with IBS; at least 2 weeks during PEP): 21% | Abdominal pain reduction of 1 point in median, responders (subjects with IBS; weekly median vs baseline for at least 2 weeks during PEP): 63%
